47 molecules from patent US9938292B2 (GUANGDONG ZHONGSHENG PHARMACEUTICAL CO., LTD, priority 2014, dated 2018) can be followed below.

Where only a bound is given, the exact number is not on record here.

One may read the IC50 as the concentration needed to halve the response being measured.

For the first test, the system named is Hedgehog signaling pathway. The experiment in a line: Gli-Luc luciferase reporter gene assay in C3H10T1/2/Gli-Luc cells under Shh-N stimulation. The class given is cell-based. To be noted: 24 h, luciferase RLU, read-out: biological activity: IC50 of the inhibitory activities of compounds on the hedgehog pathway. The procedure, abridged: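 C3H10T1/2 cells stably carrying a Gli-responsive luciferase reporter were stimulated with 30 nM Shh-N conditioned medium plus compound (7-point dilutions, duplicate) for 24 h at 37 °C. Luciferase luminescence read from lysates; IC50 by sigmoidal fit of RLU versus log concentration.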
Consider `COc1c(-c2cnc(N3C[C@@H](C)O[C@@H](C)C3)cc2C)cnc2c(-c3ccc(C#N)cc3)cccc12` [Embodiment 167], for which the IC50 was at most 50 nM.

The test is the same for the next values; noted with them: Mus musculus, C3H 10T1/2, 24 h, luciferase RLU, read-out: biological activity: IC50 of the inhibitory activities of compounds on the hedgehog pathway.
Turning to `Cc1cn(-c2ccc(N3C[C@@H](C)O[C@@H](C)C3)cc2)c(=O)c2cccc(-c3ccc(Cl)s3)c12` [Embodiment 45], the IC50 was in the range of 1000 to 5000 nM.

Consider `CCC(=O)N1[C@H](C)CN(c2ccc(-c3cnc4c(-c5ccc(C#N)cc5)nccc4c3OC)cn2)C[C@@H]1C` [Embodiment 149, 4-(3-(6-((3S,5R)-3,5-dimethyl-4-propionylpiperazizin-1-yl)pyridin-3-yl)-4-methoxy-1,7-naphthyridin-8-yl)benzonitrile], for which the IC50 was at most 50 nM.

Consider `COc1c(-c2ccc(N3C[C@@H](C)O[C@@H](C)C3)cc2)cnc2c(-c3ccc(C#N)c(F)c3)cccc12` [Embodiment 102], for which the IC50 was 50 to 100 nM.

In the case of `Cc1cn(-c2ccc(N3CCN4CCCC4C3)cc2)c(=O)c2cccc(-c3ccc(C#N)cc3)c12` (centres unmarked) [Embodiment 11], the IC50 was in the range of 100 to 500 nM.

As to `COc1c(-c2ccc(N3C[C@@H](C)O[C@@H](C)C3)cc2)cnc2c(-c3ccc(C#N)cc3)cccc12` [Embodiment 88, 4-(3-(4-((2S,6R)-2,6-dimethylmorpholino)phenyl)-4-methoxyquinolin-8-yl) benzonitrile], the IC50 is at most 50 nM.

Turning to `COc1c(-c2ccc(N3C[C@@H](C)N(C(=O)C(C)(C)O)[C@@H](C)C3)cc2)cnc2c(-c3ccc(C#N)cc3)cccc12` [Embodiment 185], the IC50 is 100 to 500 nM.

With `CC(C)(O)c1ccc(N2CCN(c3cnc4c(-c5ccc(C#N)cc5)cccc4c3C(F)(F)F)CC2)nc1` [Embodiment 218, 4-(3-(4-(5-(2-hydroxypropan-2-yl)pyridin-2-yl)piperazin-1-yl)-4-(trifluoromethyl)quinolin-8-yl)benzonitrile], the IC50 is at most 50 nM.

Regarding `Cc1cn(-c2ccc(N3CC(C)N(CC4CC4)C(C)C3)cc2)c(=O)c2cccc(-c3ccc(C#N)cc3)c12` (centres unmarked) [Embodiment 36], the IC50 lay within 100 to 500 nM.

In the case of `Cc1cn(-c2ccc(N3C[C@@H](C)O[C@@H](C)C3)cc2)c(=O)c2cccc(-c3cccc(C#N)c3)c12` [Embodiment 63], the IC50 lay in the range of 1000 to 5000 nM.

As for `C[C@@H]1CN(c2ccc(-c3cnc4c(-c5ccc(C#N)cc5)cccc4c3C#N)cc2)C[C@H](C)O1` [Embodiment 124], the IC50 lay within 50 to 100 nM.

Consider `COc1c(-c2ccc(N3C[C@@H](C)O[C@@H](C)C3)cc2)cnc2c(-c3ccc(S(=O)(=O)N4CCOCC4)cc3)cccc12` [Embodiment 96], for which the IC50 was 100 to 500 nM.

As to `COc1c(-c2ccc(N3C[C@@H](C)O[C@@H](C)C3)cc2)cnc2c(-c3ccc(C#N)cc3)ccc(F)c12` [Embodiment 138], the IC50 was at most 50 nM.

For the molecule `Cc1cn(-c2ccc(N3CCN(c4nsc5ccccc45)CC3)cc2)c(=O)c2cccc(-c3ccc(C#N)cc3)c12` [Embodiment 13], the IC50 fell in the range of 100 to 500 nM.

`COc1c(-c2ccc(N3C[C@@H](C)O[C@@H](C)C3)cc2Cl)cnc2c(-c3ccc(C#N)cc3)cccc12` [Embodiment 170]: the IC50 was at most 50 nM.

For `C[C@@H]1CN(c2ccc(-n3ccc4c(-c5ccc(C#N)cc5)cccc4c3=O)cc2C2CC2)C[C@H](C)O1` [Embodiment 80, 4-(2-(3-cyclopropyl-4-((2S,6R)-2,6-dimethylmorpholino)phenyl)-1-oxo-1,2-dihydroisoquinolin-5-yl)benzonitrile], the IC50 lay in the range of 1000 to 5000 nM.

For the molecule `COc1c(-c2ccc(N3C[C@@H](C)O[C@@H](C)C3)cc2)cnc2c(-c3ccc(-c4ncc[nH]4)cc3)cccc12` [Embodiment 111], the IC50 was in the range of 100 to 500 nM.

On to `COc1c(-c2ccc(N3C[C@@H](C)O[C@@H](C)C3)cc2)cnc2c(-c3ccc(F)nc3)cccc12` [Embodiment 93], for which the IC50 is at most 50 nM.

Regarding `COc1c(C(=O)Nc2ccc(N3C[C@@H](C)O[C@@H](C)C3)cc2)cnc2c(-c3ccc(C#N)cc3)cccc12` [Embodiment 242, 8-(4-cyanophenyl)-N-(4-((2S,6R)-2,6-dimethylmorpholino)phenyl)-4-methoxyquinoline-3-carboxamide], the IC50 is at most 50 nM.

In the case of `Cc1cc(C#N)ccc1-c1cccc2c(=O)n(-c3ccc(N4C[C@@H](C)O[C@@H](C)C4)cc3)cc(C)c12` [Embodiment 62], the IC50 fell in the range of 100 to 500 nM.

As for `COc1c(C(=O)Nc2ccc(N3C[C@@H](C)O[C@@H](C)C3)nc2)cnc2c(-c3ccc(C#N)cc3)cccc12` [Embodiment 243, 8-(4-cyanophenyl)-N-(6-((2S,6R)-2,6-dimethylmorpholino)pyridin-3-yl)-4-methoxyquinoline-3-carboxamide], the IC50 is at most 50 nM.

On to `COc1c(-c2ccc(N3CC(C)(C)C(O)C(C)(C)C3)cc2)cnc2c(-c3ccc(C#N)cc3)cccc12` [Embodiment 251], for which the IC50 was at most 50 nM.

With `C[C@@H]1CN(c2ccc(-n3ccc4c(-c5ccc(C(F)(F)F)cc5)cccc4c3=O)cn2)C[C@H](C)O1` [Embodiment 71], the IC50 lay in the range of 1000 to 5000 nM.

Consider `COc1c(-c2ccc(N3C[C@@H](C)O[C@@H](C)C3)nc2)cnc2c(-c3ccc(C(F)(F)F)cc3)cccc12` [Embodiment 159], for which the IC50 is at most 50 nM.

With `CC(C)(O)c1ccc(N2CCN(c3cnc4c(-c5ccc(C#N)cc5)cccc4c3C3CC3)CC2(C)O)nc1` (centres unmarked) [Embodiment 237, 4-(4-cyclopropyl-3-(3-hydroxy-4-(5-(1-hydroxy-1-methyl-ethyl)pyridin-2-yl)-3-methylpiperazin-1-yl)quinolin-8-yl)benzonitrile], the 50% inhibitory concentration (IC50) lay in the range of 100 to 500 nM.

With `COc1c(-c2ccc(N3C[C@@H](C)N(S(C)(=O)=O)[C@@H](C)C3)nc2)cnc2c(-c3ccc(C#N)cc3)cccc12` [Embodiment 188, 4-(3-(6-(4-methylsulfonyl-3,5-dimethylpiperazin-1-yl)pyridin-3-yl)-4-methoxyquinolin-8-yl)benzonitrile], the IC50 is at most 50 nM.

For `COc1c(-c2ccc(N3C[C@@H](C)O[C@H](C)C3)cc2)cnc2c(-c3ccc(C#N)cc3)cccc12` [Embodiment 112], the IC50 is at most 50 nM.

Regarding `Cc1cn(-c2ccc(N3CC(C)CC(C)C3)cc2)c(=O)c2cccc(-c3ccc(C#N)cc3)c12` (centres unmarked) [Embodiment 3], the IC50 was 100 to 500 nM.

Consider `COc1c(N2CCN(C(=O)CC(C)(C)O)CC2)cnc2c(-c3ccc(C#N)cc3)cccc12` [Embodiment 214], for which the IC50 is at most 50 nM.

On to `COc1c(N2CCN(c3ccc(C(C)(C)O)cn3)C(C)C2)cnc2c(-c3ccc(C#N)cc3)cccc12` (centres unmarked) [Embodiment 226], for which the concentration for half-maximal inhibition (IC50) is at most 50 nM.

For `Cc1cn(-c2ccc(N3CC(C)N(Cc4ccccc4)C(C)C3)cc2)c(=O)c2cccc(-c3ccc(C#N)cc3)c12` (centres unmarked) [Embodiment 35], the IC50 lay within 100 to 500 nM.

For `COc1c(N2CCC(N3C[C@@H](C)O[C@@H](C)C3)CC2)cnc2c(-c3ccc(C#N)cc3)cccc12` [Embodiment 227, 4-(3-(4-(2,6-dimethylmorpholino)piperidin-1-yl)-4-methoxyquinolin-8-yl) benzonitrile], the IC50 is at most 50 nM.

Take `Cc1cn(-c2ccc(N3CCN4CCC[C@H]4C3)cc2)c(=O)c2cccc(-c3ccc(C#N)cc3)c12` [Embodiment 10]: the IC50 was 100 to 500 nM.

As for `COC(=O)N1C(C)CN(c2ccc(-n3cc(C)c4c(-c5ccc(C#N)cc5)cccc4c3=O)cc2)CC1C` (centres unmarked) [Embodiment 28], the IC50 was at most 50 nM.

As to `Cc1cn(-c2ccc(N3CC(C)N(C(=O)c4ccccc4)C(C)C3)cc2)c(=O)c2cccc(-c3ccc(C#N)cc3)c12` (centres unmarked) [Embodiment 27], the IC50 was at most 50 nM.

For the molecule `COc1c(N2CCN(C(=O)N(C)C3CCOCC3)CC2)cnc2c(-c3ccc(C#N)cc3)cccc12` [Embodiment 213], the IC50 is at most 50 nM.

`CC(=O)Nc1c(-c2ccc(N3C[C@@H](C)O[C@@H](C)C3)cc2)cnc2c(-c3ccc(C#N)cc3)cccc12` [Embodiment 129, N-(8-(4-cyanophenyl)-3-(4-((2S,6R)-2,6-dimethylmorpholino)phenyl)quinolin-4-yl) acetamide]: the IC50 was 50 to 100 nM.

`COc1c(N2CCN(c3ccc(C(C)(C)O)cn3)CC2=O)cnc2c(-c3ccc(C#N)cc3)cccc12` [Embodiment 252, 4-(3-(4-(5-(2-hydroxypropan-2-yl)pyridin-2-yl)-2-oxopiperazin-1-yl-4-methoxyquinolin-8-yl))benzonitrile]: the IC50 was in the range of 100 to 500 nM.

As for `Cc1cn(-c2ccc(N3C[C@@H](C)O[C@@H](C)C3)cc2)c(=O)c2cccc(-c3ccccn3)c12` [Embodiment 53], the IC50 lay in the range of 500 to 1000 nM.

As for `COc1c(-c2ccc(N3C[C@@H](C)O[C@@H](C)C3)cc2)cnc2c(-c3ccc(C#N)cc3F)cccc12` [Embodiment 104], the IC50 is at most 50 nM.

On to `COc1c(-c2ccc(N3C[C@@H](C)O[C@@H](C)C3)cc2)cnc2c(-c3cnn(C)c3)cccc12` [Embodiment 108], for which the IC50 is 100 to 500 nM.

On to `Cc1cn(-c2ccc(N3C[C@@H](C)O[C@@H](C)C3)cc2)c(=O)c2ccnc(-c3ccc(C#N)s3)c12` [Embodiment 84], for which the IC50 lay within 1000 to 5000 nM.

Turning to `COc1c(-c2ccc(N3C[C@@H](C)N(C(=O)CN)[C@@H](C)C3)nc2)cnc2c(-c3ccc(C#N)cc3)cccc12` [Embodiment 198], the IC50 is 50 to 100 nM.

On to `C[C@H]1CN(c2ccc(-c3cnc4c(-c5ccc(C#N)cc5)cccc4c3C3CC3)cn2)C[C@H](C)O1` [Embodiment 266, 4-(4-cyclopropyl-3-(6-((2S,6S)-2,6-dimethylmorpholino)pyridin-3-yl)quinolin-8-yl) benzonitrile], for which the IC50 is at most 50 nM.

Turning to `COc1c(N2CCN(c3ncc(C(C)(C)O)cc3C(F)(F)F)CC2)cnc2c(-c3ccc(C#N)cc3)cccc12` [Embodiment 223], the IC50 is 100 to 500 nM.

For the molecule `COc1c(-c2ccc(N3C[C@@H](C)O[C@@H](C)C3)cn2)cnc2c(-c3ccc(C#N)cc3)cccc12` [Embodiment 171], the IC50 is at most 50 nM.

Consider `COc1c(N2CCn3c(nnc3C(F)(F)F)C2)cnc2c(-c3ccc(C#N)cc3)cccc12` [Embodiment 247, 4-(4-methoxy-3-(3-trifluoromethyl-5,6-dihydro-8H-[1,2,4]triazolo[4,3-a]pyrazin-7-yl)quinolin-8-yl)benzonitrile], for which the IC50 lay in the range of 100 to 500 nM.
